Measured values reported in patent US20250154152A1, “INHIBITORS OF NAEGLERIA FOWLERI” (Wisconsin Alumni Research Foundation, priority 2023, published 2025).

Each molecule was assayed on N. fowleri strain Nf69 (ATCC 30215) trophozoites (assay: Determination of EC50 values against Naegleria fowleri (growth inhibition, CellTiter Glo, 48 h)). Settings: ATCC30215, 48 h, read-out: EC50 uM against N. fowleri.
Format: cell-based
Procedure, shortened: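 Axenic Nf69 trophozoites in Nelson's complete medium with 10% FBS exposed to compound, initially 20–0.375 μM, for 48 h at 37 °C, 5% CO2. Viability read by CellTiter-Glo luminescence; % growth inhibition versus controls, triplicate averages fitted for EC50, with lower ranges used for very potent compounds.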

| Compound | EC50 |
| --- | --- |
| CN1CCC[C@H]2c3nc4ccc(Cl)cc4c(=O)n3CC[C@@H]21 [trans-10b-ent-2, (4aS,13bR)-10-chloro-4-methyl-1,2,3,4,4a,5,6,13b-octahydro-8H-[1,6]naphthyridino[5,6-b]quinazolin-8-one] | 1 to 10 µM |
| CN1CCC[C@H]2c3nc4ccc(C(F)(F)F)cc4c(=O)n3CC[C@@H]21 [trans-10d-ent-2, (4aS,13bR)-4-methyl-10-(trifluoromethyl)-1,2,3,4,4a,5,6,13b-octahydro-8H-[1,6]naphthyridino[5,6-b]quinazolin-8-one] | 1 to 10 µM |
| CN1CCC[C@H]2c3nc4cc(Cl)c(Cl)cc4c(=O)n3CC[C@@H]21 [trans-10f-ent-2, (4aS,13bR)-10,11-dichloro-4-methyl-1,2,3,4,4a,5,6,13b-octahydro-8H-[1,6]naphthyridino[5,6-b]quinazolin-8-one] | 1 to 10 µM |

Same assay, conditions: ATCC30215, N. fowleri Nf69 trophozoites, 48 h culture, 37° C., CellTiter Glo luminescence, read-out: EC50 uM against N. fowleri

| Compound | EC50 |
| --- | --- |
| Cn1c([C@@H]2CCCN(CC3COC3)C2)nc2ccc(C#N)cc2c1=O [Compound R-14o, (R)-3-methyl-2-(1-(oxetan-3-ylmethyl)piperidin-3-yl)-4-oxo-3,4-dihydroquinazoline-6-carbonitrile] | > 10 µM |
| Cn1c([C@@H]2CCCN(CC3COC3)C2)nc2ccc(Cl)cc2c1=O [Compound R-14p, (R)-6-chloro-3-methyl-2-(1-(oxetan-3-ylmethyl)piperidin-3-yl)quinazolin-4(3H)-one] | > 10 µM |
| Cn1c([C@@H]2CCCN(CC3COC3)C2)nc2ccc(F)cc2c1=O [Compound R-14q, (R)-6-fluoro-3-methyl-2-(1-(oxetan-3-ylmethyl)piperidin-3-yl)quinazolin-4(3H)-one] | > 10 µM |
| Cn1c([C@@H]2CCCN(CC3COC3)C2)nc2cc(F)ccc2c1=O [Compound R-14r, (R)-7-fluoro-3-methyl-2-(1-(oxetan-3-ylmethyl)piperidin-3-yl)quinazolin-4(3H)-one] | > 10 µM |
| COc1ccc2nc([C@@H]3CCCN(CC4COC4)C3)n(C)c(=O)c2c1 [Compound R-14s, (R)-6-methoxy-3-methyl-2-(1-(oxetan-3-ylmethyl)piperidin-3-yl)quinazolin-4(3H)-one] | > 10 µM |
| Cn1c([C@@H]2CCCN(CC3COC3)C2)nc2ccc(C(F)(F)F)cc2c1=O [Compound R-14t, (R)-3-methyl-2-(1-(oxetan-3-ylmethyl)piperidin-3-yl)-6-(trifluoromethyl)quinazolin-4(3H)-one] | > 10 µM |
| Cn1c([C@@H]2CCCN(Cc3ccncc3)C2)nc2cc(Cl)c(Cl)cc2c1=O [Compound R-14u, (R)-6,7-dichloro-3-methyl-2-(1-(pyridin-4-ylmethyl)piperidin-3-yl)quinazolin-4(3H)-one] | > 10 µM |
| Cn1c([C@@H]2CCCN(Cc3cccnc3)C2)nc2cc(Cl)c(Cl)cc2c1=O [Compound R-14v, (R)-6,7-dichloro-3-methyl-2-(1-(pyridin-3-ylmethyl)piperidin-3-yl)quinazolin-4(3H)-one] | > 10 µM |
| Cn1c([C@@H]2CCCN(Cc3ccccn3)C2)nc2cc(Cl)c(Cl)cc2c1=O [Compound R-14w, (R)-6,7-dichloro-3-methyl-2-(1-(pyridin-2-ylmethyl)piperidin-3-yl)quinazolin-4(3H)-one] | > 10 µM |
| Cn1c([C@@H]2CCCN(Cc3cnccn3)C2)nc2cc(Cl)c(Cl)cc2c1=O [Compound R-14x, (R)-6,7-dichloro-3-methyl-2-(1-(pyrazin-2-ylmethyl)piperidin-3-yl)quinazolin-4(3H)-one] | > 10 µM |
| Cn1c([C@@H]2CCCN(CCO)C2)nc2cc(Cl)c(Cl)cc2c1=O [Compound R-14z, (R)-6,7-dichloro-2-(1-(2-hydroxyethyl)piperidin-3-yl)-3-methylquinazolin-4(3H)-one] | > 10 µM |
| CC(C)N1CCC[C@H](c2nc3cc(Cl)c(Cl)cc3c(=O)n2C)C1 [Compound S-14a, (S)-6,7-dichloro-2-(1-isopropylpiperidin-3-yl)-3-methylquinazolin-4(3H)-one] | > 10 µM |
| Cn1c([C@H]2CCCN(CC3CCOCC3)C2)nc2cc(Cl)c(Cl)cc2c1=O [Compound S-14c, (S)-6,7-dichloro-3-methyl-2-(1-((tetrahydro-2H-pyran-4-yl)methyl)piperidin-3-yl)quinazolin-4(3H)-one] | > 10 µM |
| Cn1c([C@H]2CCCN(CCN3CCCC3)C2)nc2cc(Cl)c(Cl)cc2c1=O [Compound S-14cc, (S)-6,7-dichloro-3-methyl-2-(1-(2-(pyrrolidin-1-yl)ethyl)piperidin-3-yl)quinazolin-4(3H)-one] | > 10 µM |
| Cn1c([C@H]2CCCN(CC3COC3)C2)nc2cc(Cl)c(Cl)cc2c1=O [Compound S-14e, (S)-6,7-dichloro-3-methyl-2-(1-(oxetan-3-ylmethyl)piperidin-3-yl)quinazolin-4(3H)-one] | > 10 µM |
| Cn1c([C@H]2CCCN(CCO)C2)nc2cc(Cl)c(Cl)cc2c1=O [Compound S-14y, (S)-6,7-dichloro-2-(1-(2-hydroxyethyl)piperidin-3-yl)-3-methylquinazolin-4(3H)-one] | > 10 µM |
| CN1CCC[C@@H]2c3nc4ccc(Cl)cc4c(=O)n3CC[C@H]21 [trans-10a-ent 1, (4aR,13bS)-10-chloro-4-methyl-1,2,3,4,4a,5,6,13b-octahydro-8H-[1,6]naphthyridino[5,6-b]quinazolin-8-one] | 0.1 to 1 µM |
| CN1CCC[C@@H]2c3nc4ccc(C(F)(F)F)cc4c(=O)n3CC[C@H]21 [trans-10c-ent-1, (4aR,13bS)-4-methyl-10-(trifluoromethyl)-1,2,3,4,4a,5,6,13b-octahydro-8H-[1,6]naphthyridino[5,6-b]quinazolin-8-one] | 0.1 to 1 µM |
| CN1CCC[C@@H]2c3nc4cc(Cl)c(Cl)cc4c(=O)n3CC[C@H]21 [trans-10e-ent-1, (4aR,13bS)-10,11-dichloro-4-methyl-1,2,3,4,4a,5,6,13b-octahydro-8H-[1,6]naphthyridino[5,6-b]quinazolin-8-one] | 0.0001 to 0.1 µM |

Same assay, conditions: ATCC30215, positive control, N. fowleri Nf69 trophozoites, 48 h, CellTiter Glo, read-out: N. fowleri EC50

| Compound | EC50 |
| --- | --- |
| CCCCCCCCCCCCCCCCOP(=O)([O-])OCC[N+](C)(C)C [Miltefosine, miltefosine, reference compound] | 35.7 ± 9.1 µM |
